One block for each compound: values may come before it. Activity calls are given as the source filed them.
Experiments:
[1] = biological target: Hepatocyte nuclear factor 4-alpha (Homo sapiens, UniProt P41235); assay type: functional, cell-based;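 further: biochemical luminescence-based dose-response counterscreen measuring inhibition of HNF4 dimerization, run alongside a screen for blockers of ABHD5–perilipin-5 interaction; split luciferase complementation of HNF4 fusion proteins in cell lysate measuring dimerization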
Hepatocyte nuclear factor 4-alpha, sequence (P41235 whole entry, the tested form may be a part): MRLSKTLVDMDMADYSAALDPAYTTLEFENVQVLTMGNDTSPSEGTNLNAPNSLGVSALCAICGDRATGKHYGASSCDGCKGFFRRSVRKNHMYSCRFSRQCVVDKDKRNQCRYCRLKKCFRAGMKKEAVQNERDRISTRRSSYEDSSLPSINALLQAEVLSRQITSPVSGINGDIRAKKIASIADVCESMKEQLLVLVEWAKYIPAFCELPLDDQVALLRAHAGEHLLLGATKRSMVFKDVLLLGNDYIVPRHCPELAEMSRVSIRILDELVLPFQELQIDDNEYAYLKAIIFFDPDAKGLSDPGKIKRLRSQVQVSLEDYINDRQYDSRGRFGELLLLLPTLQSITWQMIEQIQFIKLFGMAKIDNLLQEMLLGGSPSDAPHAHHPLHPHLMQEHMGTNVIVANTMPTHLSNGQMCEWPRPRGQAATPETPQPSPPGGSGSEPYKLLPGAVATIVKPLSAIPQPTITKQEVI

Paired box protein Pax-8 = Paired box protein Pax-8 (Homo sapiens, UniProt Q06710); assay: PAX8 transcriptional activity inhibition in RMG-I – RMG-I cells, luciferase, cherry-pick, dose response (AID 687027); assay type: functional, cell-based;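 further: luciferase reporter driven by Pax8 target thyroperoxidase promoter measured by SteadyGlo luminescence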
Paired box protein Pax-8, sequence (Q06710 whole entry): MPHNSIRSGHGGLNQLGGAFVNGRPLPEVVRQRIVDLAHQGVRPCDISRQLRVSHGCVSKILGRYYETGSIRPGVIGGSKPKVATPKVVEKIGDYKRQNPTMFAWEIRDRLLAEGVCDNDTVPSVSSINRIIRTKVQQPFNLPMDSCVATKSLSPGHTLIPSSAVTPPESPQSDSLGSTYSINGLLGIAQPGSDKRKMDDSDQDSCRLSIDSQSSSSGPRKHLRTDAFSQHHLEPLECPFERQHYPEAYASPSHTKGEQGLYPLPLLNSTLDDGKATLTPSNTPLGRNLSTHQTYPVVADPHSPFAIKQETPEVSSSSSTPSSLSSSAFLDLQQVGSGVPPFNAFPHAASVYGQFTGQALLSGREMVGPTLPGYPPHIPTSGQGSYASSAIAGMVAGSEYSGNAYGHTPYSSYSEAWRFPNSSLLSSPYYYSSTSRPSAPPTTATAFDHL

[2] = reduced cellular PGC1a acetyl-lysine signal – cell-based, cherry-picked samples, dose response (AID 720514); assay type: functional;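 further: potency may reflect raised or lowered acetylation signal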
HEK293 = assay: EBV LMP1 TES2 canonical NF-kB signalling blockers – cell-based, HEK293, luciferase, cherry-pick, dose response (AID 588343); assay type: functional; conditions: Homo sapiens
[3] = Fluorescence-based cell-based high throughput dose response assay for inhibitors of the interaction of nucleotide-binding oligomerization domain containing 2 (NOD2) and the receptor-interacting serine-threonine kinase 2 (RIPK2).; assay type: functional; conditions: Homo sapiens
Beta Lactamase = Beta Lactamase (Pseudomonas aeruginosa, UniProt Q932Y6); assay: BLA reporter interference, concentration series – BLA reporter cells, FRET fluorescence, artefact control for TLR9-MyD88 binding inhibitor project, dose response (AID 588341); assay type: cell-based;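 further: cell based assay in CHO-K1 cells stably expressing beta-lactamase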
Beta Lactamase, sequence (Q932Y6 whole entry, the tested form may be a part): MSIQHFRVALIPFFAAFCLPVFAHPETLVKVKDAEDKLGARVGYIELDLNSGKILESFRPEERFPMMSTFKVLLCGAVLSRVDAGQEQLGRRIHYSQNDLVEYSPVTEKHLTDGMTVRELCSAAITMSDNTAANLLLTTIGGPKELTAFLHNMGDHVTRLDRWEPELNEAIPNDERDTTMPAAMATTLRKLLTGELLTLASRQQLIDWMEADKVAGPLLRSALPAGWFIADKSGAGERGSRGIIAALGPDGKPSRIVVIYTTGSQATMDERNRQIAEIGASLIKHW

CHO = CHO cell viability loss, potency – luminescence, cytotoxicity control for TLR9-MyD88 binding inhibitor project, dose response (AID 588339); assay type: functional, cell-based, hamster; conditions: Cricetulus griseus;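 further: CHO cells stably coexpressing TLR9 and MyD88 fusions from primary screen; compound exposure lasted 48 hours before viability readout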
[4] = inhibition of ARNT PAS-B/TACC3 complex formation – biochemical, AlphaScreen, cherry-picked samples, confirmation (AID 651703); assay type: functional, Homo sapiens;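 further: His-tagged ARNT PAS-B domain paired with GST-TACC3 E629A dimer coactivator fragment; potency of inhibitors that break up the complex and lower AlphaScreen signal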
Vero = assay: viability loss in Vero cells – cell-based, plate reader, cherry-pick samples, cytotoxicity control, dose response (AID 687020); assay type: functional; conditions: Chlorocebus sabaeus
[5] = intracellular Trypanosoma cruzi inhibitors in host cells – cell-based, plate reader, cherry-pick samples, set 3, dose response (AID 651818); assay type: functional;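 further: compounds incubated with infected cells for about four days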
[6] = biological target: DNA repair and recombination protein RAD54-like (Homo sapiens, UniProt Q92698); assay: RAD54 Holliday junction migration blockers – biochemical, fluorescence, cherry-picked samples, dose series, confirmation (AID 651657); assay type: functional
DNA repair and recombination protein RAD54-like, sequence (Q92698 whole entry): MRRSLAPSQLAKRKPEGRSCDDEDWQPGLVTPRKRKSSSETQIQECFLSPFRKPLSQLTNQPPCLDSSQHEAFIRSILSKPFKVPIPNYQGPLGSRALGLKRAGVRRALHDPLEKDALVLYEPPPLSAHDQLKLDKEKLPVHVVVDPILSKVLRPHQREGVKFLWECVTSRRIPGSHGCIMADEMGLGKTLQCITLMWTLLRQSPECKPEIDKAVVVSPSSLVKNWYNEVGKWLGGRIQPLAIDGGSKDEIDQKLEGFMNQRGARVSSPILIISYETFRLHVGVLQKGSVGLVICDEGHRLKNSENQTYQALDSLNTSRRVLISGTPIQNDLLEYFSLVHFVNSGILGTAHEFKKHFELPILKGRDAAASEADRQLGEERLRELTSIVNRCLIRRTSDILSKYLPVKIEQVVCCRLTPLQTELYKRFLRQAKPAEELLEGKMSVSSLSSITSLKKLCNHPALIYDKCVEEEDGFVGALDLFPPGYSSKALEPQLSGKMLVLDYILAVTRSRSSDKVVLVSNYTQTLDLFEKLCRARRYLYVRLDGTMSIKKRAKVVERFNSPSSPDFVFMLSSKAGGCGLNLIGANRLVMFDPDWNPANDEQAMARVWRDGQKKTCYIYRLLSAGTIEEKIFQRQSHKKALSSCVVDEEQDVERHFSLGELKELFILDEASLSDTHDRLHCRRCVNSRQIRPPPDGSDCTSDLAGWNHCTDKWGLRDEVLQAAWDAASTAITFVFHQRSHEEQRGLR

[7] = biological target: T1, DNA repair protein RAD52 homolog (Homo sapiens, UniProt P43351); assay type: functional, biochemical
T1 sequence (P43351 whole entry): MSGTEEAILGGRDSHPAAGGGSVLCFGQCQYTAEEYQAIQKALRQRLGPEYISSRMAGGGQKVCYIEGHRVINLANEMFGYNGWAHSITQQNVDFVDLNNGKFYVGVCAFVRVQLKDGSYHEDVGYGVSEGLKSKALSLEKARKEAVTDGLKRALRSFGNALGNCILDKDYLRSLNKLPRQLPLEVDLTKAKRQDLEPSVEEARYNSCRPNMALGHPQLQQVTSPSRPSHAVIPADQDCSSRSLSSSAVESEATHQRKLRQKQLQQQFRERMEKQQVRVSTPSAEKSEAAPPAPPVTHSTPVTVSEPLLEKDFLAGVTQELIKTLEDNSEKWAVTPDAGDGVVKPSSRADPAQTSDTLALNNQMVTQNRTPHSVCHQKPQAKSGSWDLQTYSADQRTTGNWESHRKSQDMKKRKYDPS

[8] = activation of miR-122 Renilla sensor silencing – cell-based, Huh7 psiCHECK-miR122, Renilla luciferase, cherry-picked, dose response (AID 651956); assay type: functional;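 further: huh7 hepatoma cells stably carrying a psiCHECK-2 miR-122 sensor plasmid; renilla luciferase signal reporting endogenous miR-122 activity after 48 h compound exposure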
[9] = biological target: Nuclear receptor subfamily 5 group A member 2 (Homo sapiens, UniProt O00482); assay type: functional, cell-based;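 further: HEK293T cells transfected with LRH-1 and a StAR promoter luciferase reporter; potency for inhibitors that lower LRH-1 driven reporter light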
Nuclear receptor subfamily 5 group A member 2, sequence (O00482 whole entry): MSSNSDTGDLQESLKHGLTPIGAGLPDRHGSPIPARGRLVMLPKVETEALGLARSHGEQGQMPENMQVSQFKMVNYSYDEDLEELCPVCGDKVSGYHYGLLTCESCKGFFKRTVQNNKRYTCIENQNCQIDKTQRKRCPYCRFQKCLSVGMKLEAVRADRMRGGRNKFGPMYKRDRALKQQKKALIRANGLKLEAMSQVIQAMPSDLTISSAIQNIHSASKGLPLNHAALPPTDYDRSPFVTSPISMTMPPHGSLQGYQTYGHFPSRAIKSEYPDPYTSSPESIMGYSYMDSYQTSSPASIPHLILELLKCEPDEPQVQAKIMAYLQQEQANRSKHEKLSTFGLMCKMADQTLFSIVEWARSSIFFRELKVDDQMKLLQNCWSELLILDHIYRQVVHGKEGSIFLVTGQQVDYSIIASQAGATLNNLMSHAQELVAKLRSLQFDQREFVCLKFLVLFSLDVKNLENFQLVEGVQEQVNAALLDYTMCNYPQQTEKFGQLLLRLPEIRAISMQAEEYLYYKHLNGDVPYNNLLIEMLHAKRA

Steroidogenic factor 1 = Steroidogenic factor 1 (Homo sapiens, UniProt Q13285); assay: Counterscreen for inverse agonists of the liver receptor homolog-1 (LRH-1; NR5A2): Luminescence-based cell-based high throughput dose response assay to identify inverse agonists of the Steroidogenic Factor 1 Nuclear Receptor (SF1; NR5A1).; assay type: functional
Steroidogenic factor 1, sequence (Q13285 whole entry): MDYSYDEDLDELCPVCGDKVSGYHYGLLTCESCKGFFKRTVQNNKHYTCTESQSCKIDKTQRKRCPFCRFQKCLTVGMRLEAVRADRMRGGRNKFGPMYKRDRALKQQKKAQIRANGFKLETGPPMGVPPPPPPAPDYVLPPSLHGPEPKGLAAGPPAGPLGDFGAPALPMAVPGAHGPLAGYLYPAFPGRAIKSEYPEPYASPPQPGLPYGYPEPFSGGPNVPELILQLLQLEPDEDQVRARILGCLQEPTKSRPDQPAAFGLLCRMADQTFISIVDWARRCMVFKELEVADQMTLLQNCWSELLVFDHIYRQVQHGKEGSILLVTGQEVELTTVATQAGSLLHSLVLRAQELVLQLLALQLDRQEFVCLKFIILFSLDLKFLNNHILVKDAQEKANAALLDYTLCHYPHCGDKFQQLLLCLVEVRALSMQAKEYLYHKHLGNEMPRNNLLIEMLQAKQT

[10] = nonselective StAR promoter luciferase inhibitors – cell-based, luminescence, luciferase reporter, counter-screen for LRH-1 inverse agonist project, dose response (AID 651969); assay type: functional
[11] = Counterscreen for inhibitors of Trypanosoma brucei methionyl tRNA synthetase (MetRS): Luminescence-based cell-based high throughput dose response assay to identify compounds that are cytotoxic to Jurkat human T lymphocyte cells.; assay type: functional
[12] = biological target: T2, Methionyl-tRNA synthetase, putative (Trypanosoma brucei brucei, UniProt Q38C91); assay type: functional, Trypanosoma brucei brucei strain 927/4 GUTat10.1
T2 sequence (Q38C91 whole entry): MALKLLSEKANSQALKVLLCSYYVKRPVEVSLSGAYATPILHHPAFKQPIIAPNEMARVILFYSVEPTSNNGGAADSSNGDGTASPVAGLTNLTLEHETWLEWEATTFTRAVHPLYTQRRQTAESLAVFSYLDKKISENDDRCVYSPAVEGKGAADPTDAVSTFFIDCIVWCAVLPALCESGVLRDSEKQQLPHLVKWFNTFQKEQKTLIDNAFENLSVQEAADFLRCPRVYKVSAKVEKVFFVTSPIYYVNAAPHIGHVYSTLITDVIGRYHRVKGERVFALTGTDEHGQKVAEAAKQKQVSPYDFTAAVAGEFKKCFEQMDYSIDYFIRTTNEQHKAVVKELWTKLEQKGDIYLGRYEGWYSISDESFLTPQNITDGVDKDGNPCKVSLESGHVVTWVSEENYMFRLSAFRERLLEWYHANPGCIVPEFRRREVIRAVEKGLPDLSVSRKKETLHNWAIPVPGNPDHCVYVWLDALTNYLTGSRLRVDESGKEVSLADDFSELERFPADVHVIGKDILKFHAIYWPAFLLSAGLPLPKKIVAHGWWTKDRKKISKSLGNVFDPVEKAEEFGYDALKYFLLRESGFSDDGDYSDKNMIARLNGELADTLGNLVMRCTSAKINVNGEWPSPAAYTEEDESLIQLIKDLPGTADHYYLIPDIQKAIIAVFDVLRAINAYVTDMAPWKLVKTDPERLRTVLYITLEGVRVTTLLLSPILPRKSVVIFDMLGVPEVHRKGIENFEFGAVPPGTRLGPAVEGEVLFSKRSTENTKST

[13] = biological target: T2, Methionyl-tRNA synthetase, putative; assay type: functional, Trypanosoma brucei brucei strain 927/4 GUTat10.1; remark: listed apart in the source
[14] = biological target: Heat shock protein HSP 90-alpha (Homo sapiens, UniProt P07900); assay type: functional, organism-based

SMILES: C#CCN(C[C@@H]1[C@@H](OC(=O)NCc2ccccc2F)[C@@H](OC(=O)NCc2ccccc2F)Cn2c(=O)ccc(=O)n21)S(=O)(=O)c1ccc(C)cc1
- IC50 [1]: 8.93 µM (active)
- AC50 (Paired box protein Pax-8): 5.52 µM (active)
- AC50 [2]: 2.58 µM (active)
- AC50 (HEK293): 7.17 µM (active)
- IC50 [3]: 9.77 µM (active)

SMILES: O=[N+]([O-])c1ccc(N/N=C/C=C/c2ccco2)cc1
- IC50 (Beta Lactamase): 4.19 µM (active)
- IC50 (CHO): > 49.8 µM (inactive)

- IC50 [1]: 2.24 µM (active)
SMILES: O=C(NCc1ccccc1)C(c1ccccc1F)n1c(=O)c(-c2ccco2)nc2ccccc21 (configuration not stated)

SMILES: CC(C)NC(=O)Nc1ccc2c(c1)CC(=O)N([C@H](C)CO)C[C@@H](C)[C@@H](CN(C)Cc1ccc(Oc3ccccc3)cc1)O2
- AC50 [4]: 132 µM (active)

SMILES: Cc1ccc(C)c(NC(=O)CN2C(=O)C3CC=CCC3C2=O)c1 (configuration not stated)
- AC50 (Vero): 35.8 µM (active)

SMILES: C[C@@H]1CN([C@H](C)CO)C(=O)Cc2cc(NS(=O)(=O)c3cccs3)ccc2O[C@@H]1CN(C)S(=O)(=O)c1ccc(Cl)cc1
- AC50 [5]: 4.11 µM (active)

SMILES: Cc1ccc(S(=O)(=O)N(C)C[C@@H]2Oc3c(NC(=O)CCCCCC(=O)Nc4ccccc4N)cccc3C(=O)N([C@H](C)CO)C[C@@H]2C)cc1
- AC50 [5]: 6.27 µM (active)

- AC50 [6]: 40.3 µM (active)
- AC50 [7]: 10.8 µM (active)
SMILES: CN(C)CCCNc1nc2cc(-c3ccccc3)sc2c(=O)n1C

SMILES: COc1ccc(S(=O)(=O)N(C)C[C@@H]2Oc3cc(-c4cccc(F)c4)ccc3S(=O)(=O)N([C@@H](C)CO)C[C@H]2C)cc1
- AC50 [8]: 3.72 µM (active)

SMILES: COc1ccc(NC(=O)CS(=O)(=O)c2ccc(C)cc2)c(OC)c1
- IC50 [9]: 12 µM (inactive)
- IC50 (Steroidogenic factor 1): 10 µM (inactive)
- IC50 [10]: 35.9 µM (inactive)

SMILES: Clc1ccc(COC(Cn2ccnc2)c2ccc(Cl)cc2Cl)c(Cl)c1 (configuration not stated) [MICONAZOLE]
- IC50 [11]: 33 µM (inactive)
- IC50 [12]: 12.9 µM (inactive)
- IC50 [13]: 11.7 µM (inactive)
- AC50 [14]: < 0.195 µM (active)
